# Assay: Henry solubility constant Hcp at 298.15 K (mol/(m3 Pa))
# Conditions: reference: Oliver (1985)
row,SMILES,Henry solubility constant Hcp
1,"Clc1cccc(Cl)c1Cl [1,2,3-trichlorobenzene]",0.011
2,"Clc1cc(Cl)c(Cl)cc1Cl [1,2,4,5-tetrachlorobenzene]",0.0099
3,"Clc1cc(Cl)cc(Cl)c1 [1,3,5-trichlorobenzene]",0.0052
4,"Clc1cccc(Cl)c1 [1,3-dichlorobenzene]",0.0055
5,"Clc1ccc(Cl)cc1 [1,4-dichlorobenzene]",0.0066
6,"Clc1cccc(-c2cccc(Cl)c2Cl)c1Cl [2,2',3,3'-tetrachlorobiphenyl]",0.082
7,"Clc1cc(Cl)c(-c2cc(Cl)c(Cl)cc2Cl)cc1Cl [2,2',4,4',5,5'-hexachlorobiphenyl]",0.16
8,"Clc1ccc(Cl)c(-c2cc(Cl)c(Cl)cc2Cl)c1 [2,2',4,5,5'-pentachlorobiphenyl]",0.14
9,"Clc1ccc(Cl)c(-c2cc(Cl)ccc2Cl)c1 [2,2',5,5'-tetrachlorobiphenyl]",0.082
10,"Clc1ccc(Cl)c(-c2ccccc2Cl)c1 [2,2',5-trichlorobiphenyl]",0.049
11,"Cc1c(Cl)ccc(Cl)c1Cl [2,3,6-trichloromethylbenzene]",0.0066
12,"Cc1cc(Cl)c(Cl)cc1Cl [2,4,5-trichloromethylbenzene]",0.0066
13,ClC(Cl)=C(Cl)C(Cl)=C(Cl)Cl [hexachlorobutadiene],0.0023
14,ClC(Cl)=C(Cl)c1c(Cl)c(Cl)c(Cl)c(Cl)c1Cl [octachlorostyrene],0.076
15,Cc1c(Cl)c(Cl)c(Cl)c(Cl)c1Cl [pentachloromethylbenzene],0.013
